Measured values reported in PubChem BioAssay (NCI).
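Cultured in 96-well plates, cells were exposed to test compound for 48 hours across five concentrations. GI50 is the concentration that inhibits growth by half. TGI: total growth inhibition.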

Experiments:
Experiment in all cases: NCI tumour cell line growth inhibition, 48 h
[1] = tested on: A549 NSCLC
[2] = tested on: EKVX NSCLC
[3] = tested on: SNB-75 CNS
[4] = tested on: OVCAR-8 ovarian
[5] = tested on: UACC-62 melanoma
[6] = tested on: KM12 colon
[7] = tested on: SK-MEL-28 melanoma
[8] = tested on: NCI-H23 lung
[9] = tested on: A498 renal
[10] = tested on: SF-539 CNS
[11] = tested on: SNB-19 CNS
[12] = tested on: MDA-MB-231 breast
[13] = tested on: CAKI-1 renal
[14] = tested on: SN12C renal
[15] = tested on: NCI-H522 lung
[16] = tested on: HCC-2998 colon
[17] = tested on: MOLT-4 leukemia
[18] = tested on: SK-MEL-5 melanoma
[19] = tested on: HL-60(TB) leukemia
[20] = tested on: RPMI-8226 leukemia
[21] = tested on: U251 CNS
[22] = tested on: HOP-92 NSCLC
[23] = tested on: HCT-116 colon
[24] = tested on: BT-549 breast
[25] = tested on: SW-620 colon
[26] = tested on: ACHN renal
[27] = tested on: OVCAR-3 ovarian
[28] = tested on: SK-MEL-2 melanoma
[29] = tested on: UO-31 renal
[30] = tested on: SK-OV-3 ovarian
[31] = tested on: HCT-15 colon
[32] = tested on: SR leukemia
[33] = tested on: NCI-H226 lung
[34] = tested on: SF-268 CNS
[35] = tested on: NCI-H460 lung
[36] = tested on: HOP-62 NSCLC
[37] = tested on: IGROV1 ovarian
[38] = tested on: MALME-3M melanoma
[39] = tested on: 786-0 renal
[40] = tested on: RXF 393 renal
[41] = tested on: LOX IMVI melanoma
[42] = tested on: COLO 205 colon
[43] = tested on: CCRF-CEM leukemia
[44] = tested on: HT29 colon
[45] = tested on: OVCAR-4 ovarian
[46] = tested on: HS 578T breast
[47] = tested on: TK-10 renal
[48] = tested on: OVCAR-5 ovarian
[49] = tested on: MDA-MB-435
[50] = tested on: T-47D breast
[51] = tested on: NCI/ADR-RES ovarian
[52] = tested on: PC-3 prostate
[53] = tested on: SF-295 CNS
[54] = tested on: K-562 leukemia
[55] = tested on: MCF7 breast
[56] = tested on: UACC-257 melanoma
[57] = tested on: DU-145 prostate
[58] = tested on: M14 melanoma

Question: With `COc1ccc(-n2nc(C)c3c(Nc4ccc(NC(=O)Nc5cccc(C(F)(F)F)c5)cc4)ncnc32)cc1` as the compound, how does the GI50 [1] read?
Answer: 1.65 µM

Question: And the TGI [1]?
Answer: 3.45 µM

Question: And the GI50 [2]?
Answer: 1.93 µM

Question: What about the TGI [2] of the same compound?
Answer: 4.34 µM

Question: What about the GI50 [3] of the same compound?
Answer: 0.87 µM

Question: And the TGI [3]?
Answer: 3.03 µM

Question: And the GI50 [4]?
Answer: 1.93 µM

Question: And the TGI [4]?
Answer: 4.39 µM

Question: And the GI50 [5]?
Answer: 1.76 µM

Question: And the TGI [5]?
Answer: 3.46 µM

Question: What about the GI50 [6] of the same compound?
Answer: 1.63 µM

Question: And the TGI [6]?
Answer: 3.76 µM

Question: And the GI50 [7]?
Answer: 1.85 µM

Question: What about the TGI [7] of the same compound?
Answer: 4.76 µM

Question: What about the GI50 [8] of the same compound?
Answer: 1.68 µM

Question: What about the TGI [8] of the same compound?
Answer: 3.68 µM

Question: What about the GI50 [9] of the same compound?
Answer: 1.99 µM

Question: What about the TGI [9] of the same compound?
Answer: 4.45 µM

Question: What about the GI50 [10] of the same compound?
Answer: 1.28 µM

Question: What about the TGI [10] of the same compound?
Answer: 2.66 µM

Question: And the GI50 [11]?
Answer: 1.95 µM

Question: What about the TGI [11] of the same compound?
Answer: 4.65 µM

Question: And the GI50 [12]?
Answer: 1.46 µM

Question: What about the TGI [12] of the same compound?
Answer: 3.14 µM

Question: And the GI50 [13]?
Answer: 1.46 µM

Question: What about the TGI [13] of the same compound?
Answer: 2.96 µM

Question: And the GI50 [14]?
Answer: 1.79 µM

Question: What about the TGI [14] of the same compound?
Answer: 3.86 µM

Question: What about the GI50 [15] of the same compound?
Answer: 1.6 µM

Question: And the TGI [15]?
Answer: 3.8 µM

Question: And the GI50 [16]?
Answer: 2.24 µM

Question: What about the TGI [16] of the same compound?
Answer: 5.31 µM

Question: And the GI50 [17]?
Answer: 2.01 µM

Question: What about the TGI [17] of the same compound?
Answer: 6.16 µM

Question: And the GI50 [18]?
Answer: 1.75 µM

Question: What about the TGI [18] of the same compound?
Answer: 3.21 µM

Question: What about the GI50 [19] of the same compound?
Answer: 2.31 µM

Question: And the TGI [19]?
Answer: 5.51 µM

Question: What about the GI50 [20] of the same compound?
Answer: 1.78 µM

Question: And the TGI [20]?
Answer: 4.69 µM

Question: What about the GI50 [21] of the same compound?
Answer: 1.08 µM

Question: What about the TGI [21] of the same compound?
Answer: 2.35 µM

Question: What about the GI50 [22] of the same compound?
Answer: 1.59 µM

Question: What about the TGI [22] of the same compound?
Answer: 3.31 µM

Question: What about the GI50 [23] of the same compound?
Answer: 1.62 µM

Question: What about the TGI [23] of the same compound?
Answer: 3.46 µM

Question: What about the GI50 [24] of the same compound?
Answer: 1.97 µM

Question: What about the TGI [24] of the same compound?
Answer: 5.32 µM

Question: And the GI50 [25]?
Answer: 2.14 µM

Question: What about the TGI [25] of the same compound?
Answer: 5.18 µM

Question: What about the GI50 [26] of the same compound?
Answer: 1.6 µM

Question: What about the TGI [26] of the same compound?
Answer: 3.43 µM

Question: And the GI50 [27]?
Answer: 1.74 µM

Question: And the TGI [27]?
Answer: 3.92 µM

Question: What about the GI50 [28] of the same compound?
Answer: 2.04 µM

Question: And the TGI [28]?
Answer: 4.01 µM

Question: What about the GI50 [29] of the same compound?
Answer: 1.51 µM

Question: What about the TGI [29] of the same compound?
Answer: 2.86 µM

Question: What about the GI50 [30] of the same compound?
Answer: 2.13 µM

Question: What about the TGI [30] of the same compound?
Answer: 5.3 µM

Question: And the GI50 [31]?
Answer: 1.46 µM

Question: What about the TGI [31] of the same compound?
Answer: 3.27 µM

Question: What about the GI50 [32] of the same compound?
Answer: 2.54 µM

Question: What about the TGI [32] of the same compound?
Answer: 9.38 µM

Question: And the GI50 [33]?
Answer: 1.84 µM

Question: What about the TGI [33] of the same compound?
Answer: 4.2 µM

Question: What about the GI50 [34] of the same compound?
Answer: 2.14 µM

Question: What about the TGI [34] of the same compound?
Answer: 5.51 µM

Question: And the GI50 [35]?
Answer: 1.98 µM

Question: And the TGI [35]?
Answer: 4.12 µM

Question: And the GI50 [36]?
Answer: 1.73 µM

Question: What about the TGI [36] of the same compound?
Answer: 3.45 µM

Question: And the GI50 [37]?
Answer: 2 µM

Question: What about the TGI [37] of the same compound?
Answer: 4.18 µM

Question: What about the GI50 [38] of the same compound?
Answer: 1.59 µM

Question: And the TGI [38]?
Answer: 3.31 µM

Question: What about the GI50 [39] of the same compound?
Answer: 1.56 µM

Question: What about the TGI [39] of the same compound?
Answer: 3.03 µM

Question: And the GI50 [40]?
Answer: 0.846 µM

Question: What about the TGI [40] of the same compound?
Answer: 2.34 µM

Question: What about the GI50 [41] of the same compound?
Answer: 1.3 µM

Question: And the TGI [41]?
Answer: 2.65 µM

Question: And the GI50 [42]?
Answer: 1.65 µM

Question: What about the TGI [42] of the same compound?
Answer: 3.49 µM

Question: And the GI50 [43]?
Answer: 2.3 µM

Question: And the TGI [43]?
Answer: 8.76 µM

Question: What about the GI50 [44] of the same compound?
Answer: 1.77 µM

Question: What about the TGI [44] of the same compound?
Answer: 3.96 µM

Question: And the GI50 [45]?
Answer: 2.1 µM

Question: What about the TGI [45] of the same compound?
Answer: 5.27 µM

Question: What about the GI50 [46] of the same compound?
Answer: 1.66 µM

Question: What about the TGI [46] of the same compound?
Answer: 4.17 µM

Question: What about the GI50 [47] of the same compound?
Answer: 2.39 µM

Question: And the TGI [47]?
Answer: 6.6 µM

Question: What about the GI50 [48] of the same compound?
Answer: 1.76 µM

Question: What about the TGI [48] of the same compound?
Answer: 4.12 µM

Question: What about the GI50 [49] of the same compound?
Answer: 1.8 µM

Question: What about the TGI [49] of the same compound?
Answer: 3.78 µM

Question: What about the GI50 [50] of the same compound?
Answer: 1.64 µM

Question: And the TGI [50]?
Answer: 4.84 µM

Question: What about the GI50 [51] of the same compound?
Answer: 1.81 µM

Question: What about the TGI [51] of the same compound?
Answer: 4.72 µM

Question: And the GI50 [52]?
Answer: 1.49 µM

Question: What about the TGI [52] of the same compound?
Answer: 3.9 µM

Question: What about the GI50 [53] of the same compound?
Answer: 1.67 µM

Question: And the TGI [53]?
Answer: 3.3 µM

Question: And the GI50 [54]?
Answer: 2.18 µM

Question: And the TGI [54]?
Answer: 7.22 µM

Question: And the GI50 [55]?
Answer: 2.05 µM

Question: And the TGI [55]?
Answer: 5.57 µM

Question: What about the GI50 [56] of the same compound?
Answer: 1.88 µM

Question: And the TGI [56]?
Answer: 4.18 µM

Question: What about the GI50 [57] of the same compound?
Answer: 1.97 µM

Question: And the TGI [57]?
Answer: 4.54 µM

Question: And the GI50 [58]?
Answer: 1.54 µM

Question: And the TGI [58]?
Answer: 3.36 µM
